Converted amounts (≈) assume the structure as drawn. Read-outs that look alike come from different tables or passages of the source.
Experiments:
E. coli K88+ [1] = type: cell-based, Escherichia coli K88+; settings: individually
S. choleraesuis = assay: MIC by two-fold broth dilution method; type: cell-based; settings: Salmonella enterica, 24 h, read-out: MIC values, Salmonella choleraesius
Cl. perfringens = assay: microbe, parasite or virus in culture; type: cell-based; settings: Clostridium perfringens, 24 h, read-out: MIC values, Clostrisium perfringens
E. coli K88+ [2] = assay: MIC by two-fold broth dilution method; type: cell-based; settings: Escherichia coli, 24 h, read-out: MIC values, Escheria coli K88^+

Row | Structure (SMILES) | Lag phase (λ) (E. coli K88+ [1]; dosage 0.25 mmol/L) | Lag phase (λ) (E. coli K88+ [1]; dosage 0.5 mmol/L) | MIC (S. choleraesuis) | MIC (Cl. perfringens) | MIC (E. coli K88+ [2])
1 | Cc1ccc(C(C)C)c(O)c1 [Thymol, thymol] | 1.66 | 1.65 | 1000 µM (≈ 150 µg/mL) | 1000 µM (≈ 150 µg/mL) | 1500 µM (≈ 225 µg/mL)
2 | C=CCc1ccc(O)c(OC)c1 [Eugenol, eugenol] | 1.77 | 1.91 | 2500 µM (≈ 411 µg/mL) | 4000 µM (≈ 657 µg/mL) | 2500 µM (≈ 411 µg/mL)

— patent US20230025537A1, “MIXTURE COMPRISING HYDROGENATED SOYBEAN OIL AND THYMOL” (DSM IP Assets B.V., priority 2019, published 2023)
